According to patent publication US20260325685A1, “Radiopharmaceutical Compositions Targeting Carbonic Anhydrase IX and Uses Thereof” (RayzeBio, Inc., priority 2023, published 2026):

Tests used:
human CA-IX = biological target: T1, human CA-IX (Homo sapiens, UniProt Q16790); experiment: Surface Plasmon Resonance (SPR) binding kinetics to recombinant human CA-IX (Biacore 8K, single-cycle kinetics, 1:1 binding model); conditions: Chelated Metal: Lu-175; SPR, 25° C., pH 7.4; read-out: CAIX KD
T1 construct: purchased Acro CA9-H82E3
How it was run: (§1)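 At 25° C, compound was injected at nine concentrations from 100 to 0.39 nM (PBS-P+ pH 7.4, 1% DMSO) over streptavidin-captured recombinant human CA-IX or CA-XII (1200-1800 RU). Association 120 s, dissociation 1200 s, single-cycle format; association and dissociation constants from 1:1 kinetic fits.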

human CA-XII = biological target: T2, human CA-XII (Homo sapiens, UniProt O43570); experiment: Surface Plasmon Resonance (SPR) binding kinetics to recombinant human CA-XII (Biacore 8K, single-cycle kinetics, 1:1 binding model); conditions: Chelated Metal: Lu-175, 25° C., pH 7.4, read-out: CAXII KD
T2 construct: purchased Creative BioMart CA12-261H
T2 sequence (O43570 25-354): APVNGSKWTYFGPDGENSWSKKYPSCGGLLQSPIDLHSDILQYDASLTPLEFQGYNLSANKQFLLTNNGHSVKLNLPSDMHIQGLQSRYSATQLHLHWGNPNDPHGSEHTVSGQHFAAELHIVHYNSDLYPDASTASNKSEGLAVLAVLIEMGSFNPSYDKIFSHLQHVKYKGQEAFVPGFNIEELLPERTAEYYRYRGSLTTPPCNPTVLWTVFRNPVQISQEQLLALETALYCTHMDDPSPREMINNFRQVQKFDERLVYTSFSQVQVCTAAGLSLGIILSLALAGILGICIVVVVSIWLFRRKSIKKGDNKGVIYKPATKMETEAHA
How it was run: as §1

## CC(CCC(=O)N[C@@H](CC(=O)N[C@@H](CC(=O)N1CCN(C(=O)CN2CCN(CC(=O)O)CCN(CC(=O)O)CCN(CC(=O)O)CC2)C[C@H]1C(=O)NCCn1cc(COc2ccc3nc(S(N)(=O)=O)sc3c2)nn1)C(=O)O)C(=O)O)(c1ccc(O)cc1)c1ccc(O)cc1.[Lu+3] [Compound 107.26]
Human CA-IX
  Kd: < 1 nM
Human CA-XII
  Kd: > 10 nM

## CC(CCC(=O)N[C@@H](CC(=O)N[C@@H](CC(=O)N1CCN(C(=O)CN2CCN(CC(=O)O)CCN(CC(=O)O)CCN(CC(=O)O)CC2)C[C@H]1C(=O)NCCn1cc(C23CC(c4cn5nc(S(N)(=O)=O)sc5n4)(C2)C3)nn1)C(=O)O)C(=O)O)(c1ccc(O)cc1)c1ccc(O)cc1.[Lu+3] [Compound 107.27]
Human CA-IX
  Kd: < 1 nM
Human CA-XII
  Kd: < 1 nM

## CC(CCC(=O)N[C@@H](CC(=O)N[C@@H](CC(=O)N1CCN(C(=O)CN2CCN(CC(=O)O)CCN(CC(=O)O)CCN(CC(=O)O)CC2)C[C@H]1C(=O)NCCn1cc(-c2ccc(-c3cn4nc(S(N)(=O)=O)sc4n3)cc2)nn1)C(=O)O)C(=O)O)(c1ccc(O)cc1)c1ccc(O)cc1.[Lu+3] [Compound 107.28]
Human CA-IX
  Kd: < 1 nM
Human CA-XII
  Kd: < 1 nM

## CC(CCCC(=O)N1CCOC[C@H]1C(=O)N[C@@H](CC(=O)N1CCN(C(=O)CN2CCN(CC(=O)O)CCN(CC(=O)O)CCN(CC(=O)O)CC2)C[C@H]1C(=O)NCCn1cc(C23CC(C(=O)Nc4nnc(S(N)(=O)=O)s4)(C2)C3)nn1)C(=O)O)(c1ccc(O)cc1)c1ccc(O)cc1.[Lu+3] [Compound 107.29]
Human CA-IX
  Kd: < 1 nM
Human CA-XII
  Kd: > 10 nM

## CC(CCC(=O)N[C@@H](CC(=O)N[C@@H](CC(=O)N1CCN(C(=O)CN2CCN(CC(=O)O)CCN(CC(=O)O)CCN(CC(=O)O)CC2)C[C@H]1C(=O)NCCn1cc(-c2ccc(C(=O)Nc3nnc(S(N)(=O)=O)s3)c(Cl)c2)nn1)C(=O)O)C(=O)O)(c1ccc(O)cc1)c1ccc(O)cc1.[Lu+3] [Compound 107.30]
Human CA-IX
  Kd: < 1 nM
Human CA-XII
  Kd: 1 to 2.5 nM

## CC(CCCC(=O)N1CCC(C#N)(C(=O)NCC(=O)N2CCN(C(=O)CN3CCN(CC(=O)O)CCN(CC(=O)O)CCN(CC(=O)O)CC3)C[C@@H]2C(=O)NCCn2cc(C34CC(C(=O)Nc5nnc(S(N)(=O)=O)s5)(C3)C4)nn2)CC1)(c1ccc(O)cc1)c1ccc(O)cc1.[Lu+3] [Compound 107.31]
Human CA-IX
  Kd: 1 to 2.5 nM
Human CA-XII
  Kd: > 10 nM

## CC1(C)CN(C(=O)CCCC(C)(c2ccc(O)cc2)c2ccc(O)cc2)[C@H](C(=O)N[C@@H](CC(=O)N2CCN(C(=O)CN3CCN(CC(=O)O)CCN(CC(=O)O)CCN(CC(=O)O)CC3)C[C@@H]2C(=O)NCCn2cc(C34CC(C(=O)Nc5nnc(S(N)(=O)=O)s5)(C3)C4)nn2)C(=O)O)CO1.[Lu+3] [Compound 107.32]
Human CA-IX
  Kd: < 1 nM
Human CA-XII
  Kd: > 10 nM

## CC(CCCC(=O)N1CCC2(CC2)C[C@H]1C(=O)N[C@@H](CC(=O)N1CCN(C(=O)CN2CCN(CC(=O)O)CCN(CC(=O)O)CCN(CC(=O)O)CC2)C[C@@H]1C(=O)NCCn1cc(C23CC(C(=O)Nc4nnc(S(N)(=O)=O)s4)(C2)C3)nn1)C(=O)O)(c1ccc(O)cc1)c1ccc(O)cc1.[Lu+3] [Compound 107.33]
Human CA-IX
  Kd: < 1 nM
Human CA-XII
  Kd: > 10 nM

## CNC(=O)C1(C(=O)NCC(=O)N2CCN(C(=O)CN3CCN(CC(=O)O)CCN(CC(=O)O)CCN(CC(=O)O)CC3)C[C@@H]2C(=O)NCCn2cc(C34CC(C(=O)Nc5nnc(S(N)(=O)=O)s5)(C3)C4)nn2)CCN(C(=O)CCCC(C)(c2ccc(O)cc2)c2ccc(O)cc2)CC1.[Lu+3] [Compound 107.34]
Human CA-IX
  Kd: < 1 nM
Human CA-XII
  Kd: > 10 nM

## Cc1cc(C(=O)Nc2nnc(S(N)(=O)=O)s2)ccc1-c1cn(CCNC(=O)[C@@H]2CN(C(=O)CN3CCN(CC(=O)O)CCN(CC(=O)O)CCN(CC(=O)O)CC3)CCN2C(=O)C[C@H](NC(=O)C[C@H](NC(=O)CCC(C)(c2ccc(O)cc2)c2ccc(O)cc2)C(=O)O)C(=O)O)nn1.[Lu+3] [Compound 107.35]
Human CA-IX
  Kd: < 1 nM
Human CA-XII
  Kd: > 10 nM

## CC(CCC(=O)N[C@@H](CC(=O)N[C@@H](CC(=O)N1CCN(C(=O)CN2CCN(CC(=O)O)CCN(CC(=O)O)CCN(CC(=O)O)CC2)C[C@H]1C(=O)NCCn1cc(-c2ccc(C(=O)Nc3nnc(S(N)(=O)=O)s3)cc2Cl)nn1)C(=O)O)C(=O)O)(c1ccc(O)cc1)c1ccc(O)cc1.[Lu+3] [Compound 107.36]
Human CA-IX
  Kd: < 1 nM
Human CA-XII
  Kd: > 10 nM

## NC(=O)C1(C(=O)NCC(=O)N2CCN(C(=O)CN3CCN(CC(=O)O)CCN(CC(=O)O)CCN(CC(=O)O)CC3)C[C@H]2C(=O)NCCn2cc(C34CC(C(=O)Nc5nnc(S(N)(=O)=O)s5)(C3)C4)nn2)CCN(C(=O)Cn2nc(-c3ccc(O)cc3)c3ccc(O)cc32)CC1.[Lu+3] [Compound 107.37]
Human CA-IX
  Kd: > 10 nM
Human CA-XII
  Kd: > 10 nM

## CC(CCC(=O)N[C@@H](CC(=O)N[C@@H](CC(=O)N1CCN(C(=O)CN2CCN(CC(=O)O)CCN(CC(=O)O)CCN(CC(=O)O)CC2)C[C@H]1C(=O)NCCn1cc(C23CC(C(=O)Nc4nnc(S(N)(=O)=O)s4)(C2)C3)nn1)C(=O)O)C(=O)O)(c1ccc(O)cc1)c1ccc(O)cc1.[Lu+3] [Compound 107.38]
Human CA-IX
  Kd: < 1 nM
Human CA-XII
  Kd: > 10 nM

## CC(CCC(=O)N[C@@H](CC(=O)N[C@@H](CCC(=O)N1CCN(C(=O)CN2CCN(CC(=O)O)CCN(CC(=O)O)CCN(CC(=O)O)CC2)C[C@H]1C(=O)NCCn1cc(C23CC(C(=O)Nc4nnc(S(N)(=O)=O)s4)(C2)C3)nn1)C(=O)O)C(=O)O)(c1ccc(O)cc1)c1ccc(O)cc1.[Lu+3] [Compound 107.39]
Human CA-IX
  Kd: < 1 nM
Human CA-XII
  Kd: > 10 nM

## CCC(CC)Nc1c(F)c(S(N)(=O)=O)c(F)c(F)c1S(=O)(=O)CCOCc1cn(CCNC(=O)[C@H]2CN(C(=O)CN3CCN(CC(=O)O)CCN(CC(=O)O)CCN(CC(=O)O)CC3)CCN2C(=O)C[C@H](NC(=O)[C@@H]2COCCN2C(=O)CCCc2ccc(O)cc2)C(=O)O)nn1.[Lu+3] [Compound 107.41]
Human CA-IX
  Kd: 1 to 2.5 nM
Human CA-XII
  Kd: > 10 nM

## C[C@H](Nc1c(F)c(S(N)(=O)=O)c(F)c(F)c1S(=O)(=O)CCOCc1cn(CCNC(=O)[C@H]2CN(C(=O)CN3CCN(CC(=O)O)CCN(CC(=O)O)CCN(CC(=O)O)CC3)CCN2C(=O)C[C@H](NC(=O)[C@@H]2COCCN2C(=O)CCCc2ccc(O)cc2)C(=O)O)nn1)C1CCCC1.[Lu+3] [Compound 107.42]
Human CA-IX
  Kd: < 1 nM
Human CA-XII
  Kd: 2.5 to 10 nM

## CC(CCCC(=O)N1CCOC[C@H]1C(=O)N[C@@H](CC(=O)N1CCN(C(=O)CN2CCN(CC(=O)O)CCN(CC(=O)O)CCN(CC(=O)O)CC2)C[C@@H]1C(=O)NCCn1cc(C23CC(C(=O)Nc4nnc(S(N)(=O)=O)s4)(C2)C3)nn1)C(N)=O)(c1ccc(O)cc1)c1ccc(O)cc1.[Lu+3] [Compound 107.44]
Human CA-IX
  Kd: < 1 nM
Human CA-XII
  Kd: > 10 nM

## NS(=O)(=O)c1c(F)c(F)c(S(=O)(=O)CCOCc2cn(CCCNC(=O)[C@@H]3CN(C(=O)CN4CCN(CC(=O)O)CCN(CC(=O)O)CCN(CC(=O)O)CC4)CCN3C(=O)CNC(=O)C3(C(=O)O)CCN(C(=O)CCCCc4ccc(O)cc4)CC3)nn2)c(NC2CCCCCCC2)c1F.[Lu+3] [Compound 107.45]
Human CA-IX
  Kd: < 1 nM
Human CA-XII
  Kd: 2.5 to 10 nM

## CC(CCC(=O)N[C@@H](CC(=O)N[C@@H](CC(=O)N1CCN(C(=O)CN2CCN(CC(=O)O)CCN(CC(=O)O)CCN(CC(=O)O)CC2)C[C@H]1C(=O)NCCn1cc(C23CC(C(=O)Nc4nnc(S(N)(=O)=O)s4)(C2)C3)nn1)C(N)=O)C(N)=O)(c1ccc(O)cc1)c1ccc(O)cc1.[Lu+3] [Compound 107.47]
Human CA-IX
  Kd: 1 to 2.5 nM
Human CA-XII
  Kd: > 10 nM

## CC(CCCC(=O)N1CCOC[C@H]1C(=O)N[C@@H](CC(=O)N1CCN(C(=O)CN2CCN(CC(=O)O)CCN(CC(=O)O)CCN(CC(=O)O)CC2)C[C@H]1C(=O)NCCn1cc(C23CC(c4cn5nc(S(N)(=O)=O)sc5n4)(C2)C3)nn1)C(=O)O)(c1ccc(O)cc1)c1ccc(O)cc1.[Lu+3] [Compound 107.48]
Human CA-IX
  Kd: < 1 nM
Human CA-XII
  Kd: 1 to 2.5 nM
